Data as given in PMC6792352, “Limited Chemical Structural Diversity Found to Modulate Thyroid Hormone Receptor in the Tox21 Chemical Library” (Environmental Health Perspectives, 2019).
Where a name gives a salt, the structure may show the parent alone.

Test: in vitro
Conditions: rat, gh3-tre-luc cells, AC50 (uM) modified / 1000

| Compound | CC50 at 24 h |
| --- | --- |
| CN(Cc1ccccc1)Cc1ccccc1 [Dibemethine] | > 50 µM |
| CN(C)[C@@H]1C(O)=C(C(N)=O)C(=O)[C@@]2(O)C(O)=C3C(=O)c4c(O)ccc(Cl)c4[C@@H](O)[C@H]3C[C@@H]12 [Demeclocycline hydrochloride] | > 50 µM |
| C=CN1CCCCCC1=O [1-Ethenylazepan-2-one] | > 90 µM |
| CCNC(=O)N1CCN(CCCC(c2ccc(F)cc2)c2ccc(F)cc2)CC1 [Amperozide hydrochloride] | 19.7 µM |
| CCCCCCCCc1ccc(S(=O)(=O)O)cc1 [Sodium 4-octylbenzenesulfonate] | > 90 µM |
| O=C(O)Cc1ccc(OCCNC[C@H](O)c2ccccc2)cc1 [ZD 2079] | > 50 µM |
| CC(=O)N[C@@H]1[C@@H](O)[C@H](O)[C@@H](CO)O[C@H]1O [N-Acetylglucosamine] | > 50 µM |
| O=c1[nH][nH]c2ccccc12 [3-Indazolinone] | > 90 µM |
| C=C(C)C(=O)OC1C[C@H]2CC[C@]1(C)C2(C)C (stereo partly shown) [Isobornyl methacrylate] | > 90 µM |
| COC1=CC(=O)O[C@@H](CCc2ccccc2)C1 [Dihydrokavain] | > 100 µM |
| CCC(C)S (stereo not shown) [2-Butanethiol] | > 4 µM |
| CCCCNC(=O)NCCCC [N,N'-Dibutylurea] | > 90 µM |
| CN1CCC(N(Cc2cccs2)c2ccccc2)CC1 [Thenalidine] | 27 µM |
| Cc1ccccc1C(=O)N1CC/C(=N\OS(=O)(=O)O)c2ccc(Cl)cc21 [Alilusem potassium] | > 50 µM |
| CCN(CC)C(C)=O [Diethylacetamide] | > 100 µM |
| COc1ccc(C(=O)N2CCN(CC(=O)N3CCOCC3)CC2)cc1 [Molracetam] | > 50 µM |
| O=C1c2ccccc2C(=O)C1c1ccc2ccccc2n1 [D & C Yellow 11] | > 50 µM |
| C=CC[N+]1([C@H]2C[C@H]3[C@@H]4CC[C@H]5C[C@H](O)[C@@H](N6CCOCC6)C[C@]5(C)[C@H]4CC[C@]3(C)[C@H]2OC(C)=O)CCCC1 [Rocuronium bromide] | > 50 µM |
| Nc1ccc(F)cc1F [2,4-Difluoroaniline] | > 90 µM |
| Nc1ncnc(Nc2ccccc2)n1 [Amanozine] | > 50 µM |
| Cc1ncc([N+](=O)[O-])n1CC(O)CCl (stereo not shown) [Ornidazole] | > 20 µM |
| CO[C@H]1/C=C/O[C@@]2(C)Oc3c(C)c(O)c4c(O)c(c5c(nc6cc(C)ccn65)c4c3C2=O)NC(=O)/C(C)=C\C=C\[C@H](C)[C@H](O)[C@@H](C)[C@@H](O)[C@@H](C)[C@H](OC(C)=O)[C@@H]1C [Rifaximin] | > 50 µM |
| CC(Cl)=CCCl [1,3-Dichloro-2-butene] | > 90 µM |
| Nc1c(Cl)cc(Cl)cc1[N+](=O)[O-] [2,4-Dichloro-6-nitroaniline] | > 90 µM |

| Compound | CC50 at 24 h |
| --- | --- |
| CC(=O)OC1CC(C)OC(C)O1 (stereo not shown) [Dimethoxane] | > 90 µM |
| O=c1[nH]c(=O)c2[nH]c(=O)[nH]c2[nH]1 [Sodium urate] | > 50 µM |
| N=C(N)/N=C(\N)N1CCOCC1 [Moroxidine hydrochloride] | > 20 µM |
| CN(C)c1ccc(SC#N)cc1 [4-(Dimethylamino)phenylthiocyanate] | > 90 µM |
| O=c1oc2cc(O)ccc2s1 [Thioxolone] | > 50 µM |
| CNC[C@@H]1CC[C@@H](N)[C@@H](O[C@H]2[C@H](O)[C@@H](O[C@H]3OC[C@](C)(O)[C@H](NC)[C@H]3O)[C@H](N)C[C@@H]2N)O1 [Micronomicin sulfate] | > 50 µM |
| C/C(=N\Cc1ccccc1)c1ccccc1O [Oletimol] | > 50 µM |
| C=C1C[C@]23C[C@@]1(O)CC[C@H]2[C@@]12C=C[C@H](O)[C@@](C)(C(=O)O1)[C@H]2[C@@H]3C(=O)O [Gibberellic acid] | > 90 µM |
| CC(CNC1CCCCC1)OC(=O)c1ccccc1 (stereo not shown) [Hexylcaine hydrochloride] | > 20 µM |
| Cc1c(N)cccc1[N+](=O)[O-] [2-Methyl-3-nitroaniline] | > 90 µM |
| Oc1cc(Cl)cc(Cl)c1 [3,5-Dichlorophenol] | > 90 µM |
| O=C(Nc1ccc(Cl)cc1)Nc1ccc(Cl)c(C(F)(F)F)c1 [Cloflucarban] | 6.22 µM |
| C/C(C=O)=C\c1ccccc1 [2-Methylcinnamic aldehyde] | > 90 µM |
| CC(=O)c1ccc2c(c1)N(CCCN(C)C)c1ccccc1S2 [Acetopromazine maleate] | 9.14 µM |
| CCCCC(CC)CN1CN(CC(CC)CCCC)CC(C)(N)C1 (stereo not shown) [Hexetidine] | > 20 µM |
| CC1=C(C=O)C(C)(C)CCC1 [beta-Cyclocitral] | > 90 µM |
| CCCCN1C(=O)[C@@H]([C@H](O)C2CCCCC2)NC(=O)C12CCN(Cc1ccc(Oc3ccc(C(=O)O)cc3)cc1)CC2 [Aplaviroc hydrochloride] | 77.3 µM |
| CCCCCCc1ccc(N)cc1 [4-Hexylaniline] | 81.3 µM |
| CCOc1ccc2nc(S(N)(=O)=O)sc2c1 [Ethoxzolamide] | > 50 µM |
| NC(=O)c1ccc[n+]([C@@H]2O[C@H](COP(=O)([O-])OP(=O)(O)OC[C@H]3O[C@@H](n4cnc5c(N)ncnc54)[C@H](O)[C@@H]3O)[C@@H](O)[C@H]2O)c1 [Nadide] | > 20 µM |
| COC(=O)c1ccccc1 [Methyl benzoate] | > 90 µM |
| NC(N)=Nc1nc(CSCCC(N)=NS(N)(=O)=O)cs1 [Famotidine] | > 90 µM |
| CCCCCCCCCCCCCCCCCC(=O)OC[C@@H](O)[C@H]1OC[C@H](O)[C@H]1O [Anhydrosorbitol stearate] | > 50 µM |
| c1ccc2[nH]c(-c3cscn3)nc2c1 [Thiabendazole] | > 50 µM |

| Compound | CC50 at 24 h |
| --- | --- |
| Nc1cc(C(=O)O)ccc1Cl [3-Amino-4-chlorobenzoic acid] | > 90 µM |
| O=C(O)Cc1cccc2ccccc12 [Potassium 1-naphthaleneacetate] | > 90 µM |
| O=C(O)CCCC[C@@H]1SC[C@@H]2NC(=O)N[C@@H]21 [Biotin] | > 90 µM |
| CSC(C)(C)/C=N/O [Aldicarb oxime] | > 90 µM |
| CCC(C)COC(C)=O (stereo not shown) [2-Methylbutyl acetate] | > 90 µM |
| COc1cc(OC)nc(Oc2cccc(Oc3nc(OC)cc(OC)n3)c2C(=O)O)n1 [Bispyribac-sodium] | > 90 µM |
| CCCCC(CC)COC(=O)COc1cc(Cl)c(Cl)cc1Cl (stereo not shown) [2,4,5-T 2-Ethylhexyl] | > 90 µM |
| Cc1nc(-c2ccc3c(c2)CCN(CCC2CCC(NC(=O)/C=C/c4ccc(F)cc4)CC2)CC3)no1 (stereo not shown) [SB413217A] | 8.41 µM |
| CN1C(C)(C)CC(O)CC1(C)C [1,2,2,6,6-Pentamethylpiperidin-4-ol] | > 90 µM |
| CC(CCc1ccc2c(c1)OCO2)NN (stereo not shown) [Safrazine hydrochloride] | > 50 µM |
| COCCOCCOCCOCCOCCO [2,5,8,11,14-Pentaoxahexadecan-16-ol] | > 90 µM |
| CC(C)=CCOc1c2occc2cc2ccc(=O)oc12 [Imperatorin] | > 50 µM |
| NNc1nnc(Cc2ccncc2)c2ccccc12 [Picodralazine] | > 50 µM |
| O=C1c2ccccc2C(=O)c2c(O)c(O)cc(O)c21 [Purpurin] | 71.9 µM |
| CCOc1nc(F)cc2nc(S(=O)(=O)Nc3c(Cl)cccc3Cl)nn12 [Diclosulam] | > 90 µM |
| C#C[C@]1(O)CC[C@H]2[C@@H]3CCC4=CC(=O)CC[C@@H]4[C@H]3CC[C@@]21C [Norethindrone] | 59.2 µM |
| CC(C)C1(C)N=C(c2ncccc2C(=O)O)NC1=O (stereo not shown) [Imazapyr] | > 90 µM |
| NC(=O)Nc1ccccc1 [1-Phenylurea] | > 90 µM |
| CC(C)Nc1ccccc1 [N-Isopropylaniline] | > 90 µM |
| CC(=O)Nc1ccc(OC(=O)c2ccccc2OC(C)=O)cc1 [Benorylate] | > 50 µM |
| CN1C(=O)[C@@H](NC(=O)c2cc3ccccc3[nH]2)N=C(c2ccccc2)c2ccccc21 [Devazepide] | > 50 µM |
| CCN(CC)C(=O)c1cccnc1 [N,N-Diethylnicotinamide] | > 50 µM |
| O=[N+]([O-])c1c2ccccc2cc2ccccc12 [9-Nitroanthracene] | > 90 µM |
| COc1ccc(/C=N/NC(=O)c2ccncc2)c(C(=O)O)c1OC [Opiniazide] | > 50 µM |

Same assay, conditions: rat, gh3-tre-luc cells, AC50 (uM) modified / 1000, Tox21_110001=Tox21_111802; viability, 1 nM T3 present, 24 h

| Compound | CC50 at 24 h |
| --- | --- |
| O=C(CCl)c1ccc(Oc2ccc(C(=O)CCl)cc2)cc1 [Clofenoxyde] | > 50 µM |

Same assay, conditions: rat, gh3-tre-luc cells, AC50 (uM) modified / 1000, Tox21_110001=Tox21_112593; viability, 1 nM T3 present, 24 h

| Compound | CC50 at 24 h |
| --- | --- |
| CCOC(=O)C1(c2ccccc2)CCN(CCC(C#N)(c2ccccc2)c2ccccc2)CC1 [Diphenoxylate hydrochloride] | > 50 µM |

Same assay, conditions: rat, gh3-tre-luc cells, AC50 (uM) modified / 1000, Tox21_110001=Tox21_112825; viability, 1 nM T3 present, 24 h

| Compound | CC50 at 24 h |
| --- | --- |
| CCOC(=O)C1(c2ccccc2)CCN(CCC(C#N)(c2ccccc2)c2ccccc2)CC1 [Diphenoxylate hydrochloride] | 19.7 µM |

Same assay, conditions: rat, gh3-tre-luc cells, AC50 (uM) modified / 1000, Tox21_110001=Tox21_201394; viability, 1 nM T3 present, 24 h

| Compound | CC50 at 24 h |
| --- | --- |
| CC(C)Nc1nc(Cl)nc(NC(C)C)n1 [Propazine] | > 90 µM |

Same assay, conditions: rat, gh3-tre-luc cells, AC50 (uM) modified / 1000, Tox21_110001=Tox21_202151; viability, 1 nM T3 present, 24 h

| Compound | CC50 at 24 h |
| --- | --- |
| CCN(N=O)C(N)=O [1-Ethyl-1-nitrosourea] | > 90 µM |

Same assay, conditions: rat, gh3-tre-luc cells, AC50 (uM) modified / 1000, Tox21_110001=Tox21_202439; viability, 1 nM T3 present, 24 h

| Compound | CC50 at 24 h |
| --- | --- |
| C=CCc1ccc2c(c1)OCO2 [Safrole] | > 90 µM |

Same assay, conditions: rat, gh3-tre-luc cells, AC50 (uM) modified / 1000, Tox21_110001=Tox21_202886; viability, 1 nM T3 present, 24 h

| Compound | CC50 at 24 h |
| --- | --- |
| O=[N+]([O-])c1cccc2cccc([N+](=O)[O-])c12 [1,8-Dinitronaphthalene] | > 90 µM |

Same assay, conditions: rat, gh3-tre-luc cells, AC50 (uM) modified / 1000, Tox21_110001=Tox21_300965; viability, 1 nM T3 present, 24 h

| Compound | CC50 at 24 h |
| --- | --- |
| CCOP(=S)(Oc1cnc(C(C)(C)C)nc1)OC(C)C (stereo not shown) [Tebupirimfos] | 52.3 µM |

Same assay, conditions: rat, gh3-tre-luc cells, AC50 (uM) modified / 1000, Tox21_110001=Tox21_301203; viability, 1 nM T3 present, 24 h

| Compound | CC50 at 24 h |
| --- | --- |
| C=CCc1ccc(OC(=O)Cc2ccccc2)c(OC)c1 [Eugenyl phenylacetate] | > 90 µM |

Same assay, conditions: rat, gh3-tre-luc cells, AC50 (uM) modified / 1000, Tox21_110001=Tox21_302749; viability, 1 nM T3 present, 24 h

| Compound | CC50 at 24 h |
| --- | --- |
| CCN(N=O)C(N)=O [1-Ethyl-1-nitrosourea] | > 60 µM |
